Data: patent US20110028503A1, “COMPOSITIONS AND METHODS FOR INHIBITION OF THE JAK PATHWAY” (RIGEL PHARMACEUTICALS, INC., priority 2009, published 2011)

Columns and labels:
Assay type in all cases: cell-based
[1] = tested on: U937 human monocytic cells stimulated with IFNγ (ICAM-1 up-regulation, JAK/Stat pathway); assay: U937 IFNγ ICAM1 FACS assay; conditions: U-937, IFNγ 10 ng/mL, 18-24 hours, ICAM-1 FACS, read-out: Example 6 IC50 (U937 IFNγ ICAM1 FACS assay)
Description: U937 human monocytic cells up-regulate ICAM-1 (CD54) surface expression in response to a variety of different stimuli. Therefore, using ICAM-1 expression as readout, compound effects on different signaling pathways can be assessed in the same cell type. IFNγ up-regulates ICAM-1 through activation of the JAK/Stat pathway. In this example, the up-regulation of ICAM-1 by IFNγ was assessed.
U937 cells were grown in 10% RPMI. The cells were then plated at a concentration of 100,000 cells per 160 μL in 96 well flat bottom plates. […] Then 4 μL of test compound was transferred to 76 μL of 10% RPMI resulting in a 10× solution (100 μM test compound, 5% DMSO). For control wells, 4 μL of DMSO was diluted into 76 μL 10% RPMI.
The assay was performed in duplicate with 8 points (8 3-fold dilution concentrations from […]) and with 4 wells of DMSO only (control wells) under stimulated conditions and 4 wells of DMSO only under unstimulated conditions.
The diluted compound plate was mixed 2× using a multimek (Beckman Coulter of Brea, Calif.) and then 20 μL of the diluted compounds was transferred to the 96 well plate containing 160 μL of cells, which were then mixed again twice at low speeds. The cells and compounds were then pre-incubated for 30 minutes at 37° C. with 5% CO2. […]
Both % live cells and ICAM-1 expression was analyzed. […]

[2] = tested on: human Ramos B cells stimulated with human IL-4 (JAK1 and JAK3 kinases, CD23 upregulation); assay: Ramos B-cell line stimulated with IL-4 (CD23 upregulation, FACS); conditions: IL-4 50 units/mL, 20-24 hours, anti-CD23-PE FACS, read-out: Example 3 IC50 (Ramos B-cell line stimulated with IL-4, CD23)
Description: One means of assaying for JAK inhibition is detection of the effect of compounds I and II on the upregulation of downstream gene products. In the Ramos/IL4 assay, B-cells are stimulated with the cytokine Interleukin-4 (IL-4) leading to the activation of the JAK/Stat pathway through phosphorylation of the JAK family kinases, JAK1 and JAK3, which in turn phosphorylate and activate the transcription factor Stat-6. […] Twenty to 24 hours post stimulation, cells are stained for upregulation of CD23 and analyzed using flow cytometry (FACS). […] An exemplary assay of this type is described in greater detail below. B-cells stimulated with cytokine Interleukin-4 (IL-4) activate the JAK/Stat pathway through phosphorylation of the JAK family kinases, JAK-1 and JAK-3, which in turn phosphorylate and activate the transcription factor Stat-6. […] To study the effect of inhibitors on the JAK family kinases, human Ramos B cells are stimulated with human IL-4. The Ramos B-cell line was acquired from [NT] No. CRL-1596). The cells were cultured in RPMI 1640 (Cellgro, MediaTech, Inc., Herndon, Va., Cat No. 10-040-CM) with 10% fetal bovine serum (FBS), heat inactivated (JRH Biosciences, Inc, Lenexa, Kans., Cat No. 12106-500M) according to ATCC propagation protocol. […] Cells were then spun down and stained with anti-CD23-PE(BD Pharmingen, San Diego, Calif., Cat No. 555711) and analyzed by FACS. […]

[3] = tested on: primary human T-cells (IL-2 stimulated proliferation; JAK1 and JAK3); assay: Primary human T-cell proliferation assay stimulated with IL-2; conditions: IL-2, 72 hours, CellTiter-Glo ATP readout, read-out: Example 4 IC50 (primary human T-cell proliferation stimulated with IL-2)
From the text: In this assay, primary human T-cells derived from peripheral blood and pre-activated through stimulation of the T-cell receptor and CD28, proliferate in culture in response to the cytokine Interleukin-2 (IL-2). This proliferative response is dependent on the activation of JAK1 and JAK3 tyrosine kinases, which phosphorylate and activate the transcription factor Stat-5. […] A reduction in cell proliferation compared to control conditions is indicative of inhibition of the JAK kinase pathway. An exemplary assay of this type is described in greater detail below.
Primary human T-cells derived from peripheral blood and pre-activated through stimulation of the T-cell receptor and CD28, proliferate in vitro in response to the cytokine Interleukin-2 (IL-2). This proliferative response is dependent on the activation of JAK-1 and JAK-3 tyrosine kinases, which phosphorylate and activate the transcription factor Stat-5.
Human primary T cells were prepared as follows. […] The lymphocytes at the serum: ficoll interface were recovered and washed twice with 5 volumes of PBS. […]
Proliferation was measured using CellTiter-Glo® Luminescent Cell Viability Assay (Promega), which determines the number of viable cells in culture based on quantitation of the ATP present, as an indicator of metabolically active cells. […]

C#CCOc1ccc(Nc2nc(Nc3ccc(C)c(S(N)(=O)=O)c3)ncc2F)cc1 [Compound I, N2-(3-Aminosulfonyl-4-methylphenyl)-5-fluoro-N4-[4-(prop-2-ynyloxy)phenyl]-2,4-pyrimidinediamine]
IC50 [1]: 565 nM
IC50 [2]: 56 nM
IC50 [3]: 181 nM
